Patent US20230255953A1, “USE OF ROLUPERIDONE IN PREVENTING RELAPSE IN SCHIZOPHRENIA PATIENTS” (Minerva Neurosciences, Inc., priority 2022, published 2023)

System: patients with negative symptoms of schizophrenia
Experiment: Study #1 (MIN-101C03) Phase 2b: PANSS-derived scores (PSM, NSFS, total, subscales)
Assay type: in vivo, human
Settings: for Change from Baseline LS Mean: 3-Factor General Psychopathology Subscale Score / Change from Baseline LS Mean: 3-Factor Negative Subscale Score / Change from Baseline LS Mean: 3-Factor Positive Subscale Score / Change from Baseline LS Mean: 5-Factor Activation Score (PSM) / Change from Baseline LS Mean: 5-Factor Autistic Preoccupation Score (PSM) / Change from Baseline LS Mean: 5-Factor Dysphoric Mood Score (PSM) / Change from Baseline LS Mean: 5-Factor Positive Score (PSM) / Change from Baseline LS Mean: NSFS (post-hoc) / Change from Baseline LS Mean: PANSS Negative Factor Score (pentagonal structure model) / Change from Baseline LS Mean: PANSS Total Score / Effect Size vs Placebo: 3-Factor General Psychopathology Subscale Score / Effect Size vs Placebo: 3-Factor Negative Subscale Score / Effect Size vs Placebo: 3-Factor Positive Subscale Score / Effect Size vs Placebo: 5-Factor Activation Score (PSM) / Effect Size vs Placebo: 5-Factor Autistic Preoccupation Score (PSM) / Effect Size vs Placebo: 5-Factor Dysphoric Mood Score (PSM) / Effect Size vs Placebo: 5-Factor Positive Score (PSM) / Effect Size vs Placebo: NSFS (post-hoc) / Effect Size vs Placebo: PANSS Negative Factor Score (pentagonal structure model) / Effect Size vs Placebo: PANSS Total Score: ITT
Excerpt: “PANSS”, as used herein, refers to the positive and negative syndrome scale, which is used by physicians and clinicians to measure the severity of the symptoms in a schizophrenia patient. The scale is divided into three parts, a positive scale, which provides a “PANSS positive subscore”, a negative scale, which provides a “PANSS negative subscore”, and general psychopathology scale. The sum of these three parts provides a PANSS total score, which ranges from 30 to 210 (where higher scores indicate more severe symptoms). (Kay, S. R., et al. “The positive and negative syndrome scale (PANSS) for schizophrenia,” Schizophr Bulletin, 13(2), 261-276 (1987)).
As used herein, PANSS Marder's negative symptoms factor score (“NSFS”), refers to selection of seven of the PANSS items used by physicians and clinicians to measure the severity of the negative symptoms in a schizophrenia patient. (See Tables 5A and 5B.) The NSFS total score ranges from 7 to 49. (Marder, S. R. et al. “The effects of risperidone on the five dimensions of schizophrenia derived by factor analysis: combined results of the North American trials,” J Clin Psychiatry. 1997; 58:538-46.)
The PANSS was designed to be used in patients with schizophrenia to measure the overall severity of schizophrenic symptoms. The scale has been validated in different cultures and languages and is reliable and acceptable to regulatory health authorities as a primary scale to determine efficacy of intervention in schizophrenia. The name refers to the 2 types of symptoms in schizophrenia, as defined by the American Psychiatric Association: positive symptoms, which refer to an excess or distortion of normal functions (e.g., hallucinations and delusions), and negative symptoms, which represent a diminution or loss of normal functions.
The patient is rated from 1 to 7 on 30 different symptoms based on the interview as well as reports of family members or primary care hospital workers. The original PANSS included 3 groups of symptoms and subscale scores Positive, Negative, and General Psychopathology. Since the inception of PANSS, investigators have proposed additional grouping (structures) of PANSS such as the Marder structure (Marder, S. R. et al. “Issues and perspectives in designing clinical trials for negative symptoms in schizophrenia: consensus statements,” Schizophrenia Bulletin Open. 2020; 1(1). doi:10.1093/schizbullopen/sgz001) and the White structure (White, L. et al. “Empirical assessment of the factorial structure of clinical symptoms in schizophrenia”. Psychopathology. 1997; 30263-274).
The PANSS was assessed at the time points described in Table 4.
The PANSS-derived endpoints used in these studies and the integrated analyses are described in Table 5A and a summary of the individual PANSS items used by physicians and clinicians to measure the severity of the symptoms in a schizophrenia patient is provided in Table 5B. The scale is divided into three parts, a positive scale, which provides a “PANSS positive subscore”, a negative scale, which provides a “PANSS negative subscore”, and general psychopathology scale. The sum of these three parts provides a PANSS total score, which ranges from 30 to 210 (where higher scores indicate more severe symptoms). (See Kay, S. R., et al. “The positive and negative syndrome scale (PANSS) for schizophrenia,” Schizophr Bulletin, 13(2), 261-276 (1987) and Gopal, S., et al. “Improvement of Negative Symptoms in Schizophrenia with Paliperidone Palmitate 1-Month and 3-Month Long-Acting Injectables: Results from a Phase 3 Non-Inferiority Study” Neuropsychiatric Disease and Treatment, 681-690, DOI: 10.2147/NDT.5226296, both of which are incorporated by reference.) […]

**Q.** How did the “Effect Size vs Placebo: 20% reduction in NSFS responders” value (32 mg QD, Week 12 DB) turn out when “1H-Isoindol-1-one,2-[ [1-[2-(4-fluorophenyl)-2-oxoethyl]-4-piperidinyl]methyl]-2,3-dihydro-, hydrochloride, hydrate (1:1:2) [Roluperidone]” was run?
**A.** 0.06

**Q.** And the “Effect Size vs Placebo: 30% reduction in NSFS responders” value (32 mg QD, Week 12 DB)?
**A.** 0

**Q.** What about the “Number of Patients with 20% reduction in NSFS at Week 12” value (32 mg QD, Week 12 DB) of the same substance?
**A.** 15/51

**Q.** And the “Number of Patients with 30% reduction in NSFS at Week 12” value (32 mg QD, Week 12 DB)?
**A.** 2/51

**Q.** What about the “Patients with 20% reduction in NSFS at Week 12 (%)” value (32 mg QD, Week 12 DB) of the same substance?
**A.** (29%)

**Q.** And the “Patients with 30% reduction in NSFS at Week 12 (%)” value (32 mg QD, Week 12 DB)?
**A.** (4%)

**Q.** What about the “Change from Baseline LS Mean: 3-Factor General Psychopathology Subscale Score” value (32 mg QD, Week 12 DB) of the same substance?
**A.** −1.07

**Q.** And the “Change from Baseline LS Mean: 3-Factor Negative Subscale Score” value (32 mg QD, Week 12 DB)?
**A.** −3.35

**Q.** And the “Change from Baseline LS Mean: 3-Factor Positive Subscale Score” value (32 mg QD, Week 12 DB)?
**A.** 0.46

**Q.** And the “Change from Baseline LS Mean: 5-Factor Activation Score (PSM)” value (32 mg QD, Week 12 DB)?
**A.** −0.05

**Q.** And the “Change from Baseline LS Mean: 5-Factor Autistic Preoccupation Score (PSM)” value (32 mg QD, Week 12 DB)?
**A.** −0.85

**Q.** And the “Change from Baseline LS Mean: 5-Factor Dysphoric Mood Score (PSM)” value (32 mg QD, Week 12 DB)?
**A.** −0.32

**Q.** What about the “Change from Baseline LS Mean: 5-Factor Positive Score (PSM)” value (32 mg QD, Week 12 DB) of the same substance?
**A.** 0.58

**Q.** What about the “Change from Baseline LS Mean: NSFS (post-hoc)” value (32 mg QD, Week 12 DB) of the same substance?
**A.** −3.43

**Q.** What about the “Change from Baseline LS Mean: PANSS Negative Factor Score (pentagonal structure model)” value (32 mg QD, Week 12 DB) of the same substance?
**A.** −3.07

**Q.** And the “Change from Baseline LS Mean: PANSS Total Score” value (32 mg QD, Week 12 DB)?
**A.** −3.66

**Q.** And the “Effect Size vs Placebo: 3-Factor General Psychopathology Subscale Score” value (32 mg QD, Week 12 DB)?
**A.** 0.23

**Q.** And the “Effect Size vs Placebo: 3-Factor Negative Subscale Score” value (32 mg QD, Week 12 DB)?
**A.** 0.54

**Q.** What about the “Effect Size vs Placebo: 3-Factor Positive Subscale Score” value (32 mg QD, Week 12 DB) of the same substance?
**A.** 0.16

**Q.** And the “Effect Size vs Placebo: 5-Factor Activation Score (PSM)” value (32 mg QD, Week 12 DB)?
**A.** 0.44

**Q.** And the “Effect Size vs Placebo: 5-Factor Autistic Preoccupation Score (PSM)” value (32 mg QD, Week 12 DB)?
**A.** 0.08

**Q.** What about the “Effect Size vs Placebo: 5-Factor Dysphoric Mood Score (PSM)” value (32 mg QD, Week 12 DB) of the same substance?
**A.** 0.11

**Q.** What about the “Effect Size vs Placebo: 5-Factor Positive Score (PSM)” value (32 mg QD, Week 12 DB) of the same substance?
**A.** −0.13

**Q.** And the “Effect Size vs Placebo: NSFS (post-hoc)” value (32 mg QD, Week 12 DB)?
**A.** 0.61

**Q.** What about the “Effect Size vs Placebo: PANSS Negative Factor Score (pentagonal structure model)” value (32 mg QD, Week 12 DB) of the same substance?
**A.** 0.45

**Q.** And the “Effect Size vs Placebo: PANSS Total Score” value (32 mg QD, Week 12 DB)?
**A.** 0.34

**Q.** And the “Effect Size vs Placebo: 20% reduction in NSFS responders” value (64 mg QD, Week 12 DB)?
**A.** 0.17

**Q.** And the “Effect Size vs Placebo: 30% reduction in NSFS responders” value (64 mg QD, Week 12 DB)?
**A.** 0.15

**Q.** What about the “Number of Patients with 20% reduction in NSFS at Week 12” value (64 mg QD, Week 12 DB) of the same substance?
**A.** 18/54

**Q.** What about the “Number of Patients with 30% reduction in NSFS at Week 12” value (64 mg QD, Week 12 DB) of the same substance?
**A.** 7/54

**Q.** And the “Change from Baseline LS Mean: 3-Factor General Psychopathology Subscale Score” value (64 mg QD, Week 12 DB)?
**A.** −2.58

**Q.** What about the “Change from Baseline LS Mean: 3-Factor Negative Subscale Score” value (64 mg QD, Week 12 DB) of the same substance?
**A.** −3.82

**Q.** And the “Change from Baseline LS Mean: 3-Factor Positive Subscale Score” value (64 mg QD, Week 12 DB)?
**A.** 0.36

**Q.** And the “Change from Baseline LS Mean: 5-Factor Activation Score (PSM)” value (64 mg QD, Week 12 DB)?
**A.** −0.17

**Q.** And the “Change from Baseline LS Mean: 5-Factor Autistic Preoccupation Score (PSM)” value (64 mg QD, Week 12 DB)?
**A.** −1.21

**Q.** What about the “Change from Baseline LS Mean: 5-Factor Dysphoric Mood Score (PSM)” value (64 mg QD, Week 12 DB) of the same substance?
**A.** −1.04

**Q.** And the “Change from Baseline LS Mean: 5-Factor Positive Score (PSM)” value (64 mg QD, Week 12 DB)?
**A.** −0.25

**Q.** What about the “Change from Baseline LS Mean: NSFS (post-hoc)” value (64 mg QD, Week 12 DB) of the same substance?
**A.** −3.9

**Q.** What about the “Change from Baseline LS Mean: PANSS Negative Factor Score (pentagonal structure model)” value (64 mg QD, Week 12 DB) of the same substance?
**A.** −3.50

**Q.** And the “Change from Baseline LS Mean: PANSS Total Score” value (64 mg QD, Week 12 DB)?
**A.** −5.83

**Q.** And the “Effect Size vs Placebo: 3-Factor General Psychopathology Subscale Score” value (64 mg QD, Week 12 DB)?
**A.** 0.56

**Q.** And the “Effect Size vs Placebo: 3-Factor Negative Subscale Score” value (64 mg QD, Week 12 DB)?
**A.** 0.70

**Q.** And the “Effect Size vs Placebo: 3-Factor Positive Subscale Score” value (64 mg QD, Week 12 DB)?
**A.** 0.20

**Q.** What about the “Effect Size vs Placebo: 5-Factor Activation Score (PSM)” value (64 mg QD, Week 12 DB) of the same substance?
**A.** 0.49

**Q.** And the “Effect Size vs Placebo: 5-Factor Autistic Preoccupation Score (PSM)” value (64 mg QD, Week 12 DB)?
**A.** 0.22

**Q.** And the “Effect Size vs Placebo: 5-Factor Dysphoric Mood Score (PSM)” value (64 mg QD, Week 12 DB)?
**A.** 0.43

**Q.** What about the “Effect Size vs Placebo: 5-Factor Positive Score (PSM)” value (64 mg QD, Week 12 DB) of the same substance?
**A.** 0.24

**Q.** And the “Effect Size vs Placebo: NSFS (post-hoc)” value (64 mg QD, Week 12 DB)?
**A.** 0.78

**Q.** What about the “Effect Size vs Placebo: PANSS Negative Factor Score (pentagonal structure model)” value (64 mg QD, Week 12 DB) of the same substance?
**A.** 0.57

**Q.** And the “Effect Size vs Placebo: PANSS Total Score” value (64 mg QD, Week 12 DB)?
**A.** 0.57

**Q.** What about the “PANSS PSM negative factor score, course in OL period” value (OL period (placebo crossed over) and whole study) of the same substance?
**A.** trend of improvement continued
